Values quoted from earlier work, collected in patent US20220378861A1, “COMPOSITIONS AND METHODS FOR DELIVERING CANNABINOIDS USING MICRONEEDLE DEVICES TO THE SKIN” (AQUAVIT PHARMACEUTICALS, INC., priority 2019, published 2022).

Conditions: oral absorption, after extensive first pass liver metabolism

Compound: CCCCCc1cc(O)c2c(c1)OC(C)(C)[C@@H]1CCC(C)=C[C@@H]21 [THC, tetrahydrocannabinol]
- bioavailability to the systemic circulation: 6%
